In patent publication US11440923B2, “Substituted macrocyclic indole derivatives” (Bayer Aktiengesellschaft, priority 2017, dated 2022):
Counter-ions that a name gives are not always drawn. Like-named read-outs stand apart in the source and are kept apart here.

Key:
BCL-2 = BCL-2 (Homo sapiens (Human), UniProt P10415); assay: Protein-protein interaction assay BCL-2/Bad BH3 peptide (BCL-2 assay, TR-FRET); type: binding; settings: read-out: BCL-2 Assay IC50 (median)
Method in brief: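 His-tagged BCL-2 (aa 1-211, E. coli, 1 nM) preincubated 10 min at 22° C with compound (0.1 nM-20 μM), then 1 nM biotinylated Bad BH3 peptide with anti-His-Eu/streptavidin-XL665 added. Buffer: 50 mM Tris pH 7, 100 mM NaCl, 50 mM KF, 2 mM DTT. Incubated 1 h at 22° C, then overnight at 4° C. 665/620 ratio normalized; IC50 by 4-parameter fit.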

SUDHL5 cells = assay: Induction of cytotoxicity in SUDHL5 cells (Assay 6); type: cell-based
Method in brief: (§1)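 Run alongside apoptosis measurements, this cytotoxicity readout used cells treated with compound for 5 h at 37 °C and quantified ATP-based luminescence with CellTiter-Glo.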

SUDHL10 cells = assay: Induction of cytotoxicity in SUDHL10 cells (Assay 6); type: cell-based
Method in brief: as §1

[1] = 5 h, CellTiter-Glo; read-out: Cytotox SUDHL5 IC50 (median)
[2] = 5 h, CellTiter-Glo; read-out: Cytotox SUDHL10 IC50 (median)
[3] = Homo sapiens, SU-DHL-5, 5 h, 5 h, CellTiter-Glo; read-out: Cytotox SUDHL5 IC50 (median)
[4] = Homo sapiens, SU-DHL10, 5 h, 5 h, CellTiter-Glo; read-out: Cytotox SUDHL10 IC50 (median)

BCL-2, sequence (P10415 1-211): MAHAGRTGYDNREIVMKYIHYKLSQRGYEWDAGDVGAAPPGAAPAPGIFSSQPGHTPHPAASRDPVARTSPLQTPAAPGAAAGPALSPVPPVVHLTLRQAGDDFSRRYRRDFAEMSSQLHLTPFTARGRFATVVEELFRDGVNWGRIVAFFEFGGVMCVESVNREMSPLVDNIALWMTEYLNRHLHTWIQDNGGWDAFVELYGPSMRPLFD

IC50 (BCL-2) | Structure (SMILES) | IC50 (SUDHL5 cells; [1]) | IC50 (SUDHL10 cells; [2]) | IC50 (SUDHL5 cells; [3]) | IC50 (SUDHL10 cells; [4]) | IC50 (SUDHL5 cells; read-out: Cytotox SUDHL5 IC50 (median); 5 h, CellTiter-Glo) | IC50 (SUDHL10 cells; read-out: Cytotox SUDHL10 IC50 (median); 5 h, CellTiter-Glo)
> 20 µM | Cc1c2c(nn1C)C(CCO)OCCCCn1c(C(=O)O)c(CCCOc3cccc4ccccc34)c3ccc(Cl)c-2c31 (single isomer, unassigned; enantiomer 2) [Example 32, (−)-4-chloro-15-(2-hydroxyethyl)-2,3-dimethyl-7-{3-[(naphthalen-1-yl)oxy]propyl}-2,10,11,12,13,15-hexahydropyrazolo[4′,3′:9,10][1,6]oxazacycloundecino[8,7,6-hi]indole-8-carboxylic Acid (Enantiomer 2)] | > 33 µM | > 33 µM |  |  |  | 
14.6 µM | Cc1c2c(nn1C)C(C1CC1)OCCCCn1c(C(=O)O)c(CCCOc3cccc4ccccc34)c3ccc(Cl)c-2c31 (single isomer, unassigned; enantiomer 2) [Example 36, (−)-4-chloro-15-cyclopropyl-2,3-dimethyl-7-{3-[(naphthalen-1-yl)oxy]propyl}-2,10,11,12,13,15-hexahydropyrazolo[4′,3′:9,10][1,6]oxazacycloundecino[8,7,6-hi]indole-8-carboxylic Acid N-ethylethanamine Salt (Enantiomer 2)] | 21 µM | 27 µM |  |  |  | 
17 µM | CCc1c2c(nn1C)C(CC(C)(C)O)OCCCCn1c(C(=O)O)c(CCCOc3cccc4cc(F)ccc34)c3ccc(Cl)c-2c31 (single isomer, unassigned; enantiomer 1) [Example 53, (+)-4-chloro-3-ethyl-7-{3-[(6-fluoronaphthalen-1-yl)oxy]propyl}-15-(2-hydroxy-2-methylpropyl)-2-methyl-2,10,11,12,13,15-hexahydropyrazolo[4′,3′:9,10][1,6]oxazacycloundecino[8,7,6-hi]indole-8-carboxylic Acid—N-ethylethanamine Salt (Enantiomer 1)] | 0.095 µM | 0.19 µM |  |  |  | 
> 20 µM | Cc1c2c(nn1C)C(CCN1CCOCC1)OCCCCn1c(C(=O)O)c(CCCOc3cccc4ccccc34)c3ccc(Cl)c-2c31 (single isomer, unassigned; enantiomer 2) [Example 15, 4-chloro-2,3-dimethyl-15-[2-(morpholin-4-yl)ethyl]-7-{3-[(naphthalen-1-yl)oxy]propyl}-2,10,11,12,13,15-hexahydropyrazolo[4′,3′:9,10][1,6]oxazacycloundecino[8,7,6-hi]indole-8-carboxylic Acid (Enantiomer 2)] | 2.5 µM | 9.7 µM |  |  |  | 
> 20 µM | CCc1c2c(nn1C)C(CCO)OCCCCn1c(C(=O)O)c(CCCOc3cccc4cc(F)ccc34)c3ccc(Cl)c-2c31 (single isomer, unassigned; enantiomer 2) [Example 46, (−)-4-chloro-3-ethyl-7-{3-[(6-fluoronaphthalen-1-yl)oxy]propyl}-15-(2-hydroxyethyl)-2-methyl-2,10,11,12,13,15-hexahydropyrazolo[4′,3′:9,10][1,6]oxazacycloundecino[8,7,6-hi]indole-8-carboxylic Acid (Enantiomer 2)] | 4.3 µM | 5.5 µM |  |  |  | 
> 20 µM | Cc1c2c(nn1C)C(CCN1CCOCC1)OCCCCn1c(C(=O)O)c(CCCOc3cccc4ccccc34)c3ccc(F)c-2c31 (racemic) [Example 7, (rac)-4-fluoro-2,3-dimethyl-15-[2-(morpholin-4-yl)ethyl]-7-[3-(naphthalen-1-yloxy)propyl]-2,10,11,12,13,15-hexahydropyrazolo[4′,3′:9,10][1,6]oxazacycloundecino[8,7,6-hi]indole-8-carboxylic Acid] |  |  | 0.24 µM | 0.38 µM |  | 
> 20 µM | Cc1c2c(nn1C)C(C)OCCCCn1c(C(=O)O)c(CCCOc3cccc4ccccc34)c3cccc-2c31 (single isomer, unassigned; stereoisomer 1) [Example 2, 2,3,15-trimethyl-7-[3-(naphthalen-1-yloxy)propyl]-2,10,11,12,13,15-hexahydropyrazolo[4′,3′:9,10][1,6]oxazacycloundecino[8,7,6-hi]indole-8-carboxylic Acid Trifluoroacetic Acid Salt (Stereoisomer 1)] |  |  |  |  | 1.3 µM | 2.5 µM

Structure (SMILES) | IC50 (BCL-2) | IC50 (SUDHL5 cells; [1]) | IC50 (SUDHL10 cells; [2]) | IC50 (SUDHL5 cells; [3]) | IC50 (SUDHL10 cells; [4]) | IC50 (SUDHL5 cells; read-out: Cytotox SUDHL5 IC50 (median); 5 h, CellTiter-Glo) | IC50 (SUDHL10 cells; read-out: Cytotox SUDHL10 IC50 (median); 5 h, CellTiter-Glo)
CCc1c2c(nn1C)C(CCN1CCC(F)(F)C1)OCCCCn1c(C(=O)O)c(CCCOc3cccc4cc(F)ccc34)c3ccc(Cl)c-2c31 (racemic) [Example 55, (rac)-4-chloro-(15-rac)-[2-(3,3-difluoropyrrolidin-1-yl)ethyl]-3-ethyl-7-{3-[(6-fluoronaphthalen-1-yl)oxy]propyl}-2-methyl-2,10,11,12,13,15-hexahydropyrazolo[4′,3′:9,10][1,6]oxazacycloundecino[8,7,6-hi]indole-8-carboxylic acid—2-hydroxypropane-1,2,3-tricarboxylic Acid Salt] | > 20 µM |  |  | 0.041 µM | 0.068 µM |  | 
CCc1c2c(nn1C)C(CCN1CCOCC1)OCCCCn1c(C(=O)O)c(CCCOc3cccc4ccccc34)c3ccc(F)c-2c31 (single isomer, unassigned; enantiomer 2) [Example 12, 3-ethyl-4-fluoro-2-methyl-15-[2-(morpholin-4-yl)ethyl]-7-{3-[(naphthalen-1-yl)oxy]propyl}-2,10,11,12,13,15-hexahydropyrazolo[4′,3′:9,10][1,6]oxazacycloundecino[8,7,6-hi]indole-8-carboxylic Acid—N-ethylethanamine Salt (Enantiomer 2)] | > 20 µM | 3.3 µM | 8.1 µM |  |  |  | 
